For one assay, the target named is human Gal-1 (hGal-1). Description: Competitive binding assay: biotinylated hGal-1 binding to microplate-adsorbed asialofetuin (ASF). The note with it: Activity on hGal-1; binding of biotinylated hGal-1 to ASF-coated plates; mean values. In outline:
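Biotinylated hGal-1 (300–1000 ng/mL; optionally a cysteine-free all-serine variant) incubated 3 h at 4 °C with compound on asialofetuin-coated plates, then streptavidin-peroxidase 1 h at 4 °C. ABTS readout at OD 410 nm after 30–45 min; IC50 given as mean of several runs.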

Another assay has as its target human Gal-3 (hGal-3) (Homo sapiens (Human), UniProt P17931). Description: Competitive binding assay: biotinylated hGal-3 binding to microplate-adsorbed asialofetuin (ASF). Conditions: Activity on hGal-3; binding of biotinylated hGal-3 to ASF-coated plates; mean values. In outline: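 Serially diluted compounds competed with biotinylated human Gal-3 for binding to plate-adsorbed asialofetuin over 3 h at 4 °C. Bound Gal-3 was detected with streptavidin-peroxidase (80 ng/mL, 1 h, 4 °C) and ABTS substrate. IC50 values are means of several measurements.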

Drawing on US12291519B2, “2-hydroxycycloalkane-1-carbamoyl” (Idorsia Pharmaceuticals Ltd, priority 2019, dated 2025), this text covers IC50 for 13 molecules.

The structures appear in SMILES notation.

human Gal-1 (hGal-1), sequence (P09382 2-135 limits assumed): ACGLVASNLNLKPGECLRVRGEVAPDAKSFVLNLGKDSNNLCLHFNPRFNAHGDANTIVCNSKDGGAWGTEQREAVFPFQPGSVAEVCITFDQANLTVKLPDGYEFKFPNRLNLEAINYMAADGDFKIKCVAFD
human Gal-3 (hGal-3), sequence (P17931 whole entry): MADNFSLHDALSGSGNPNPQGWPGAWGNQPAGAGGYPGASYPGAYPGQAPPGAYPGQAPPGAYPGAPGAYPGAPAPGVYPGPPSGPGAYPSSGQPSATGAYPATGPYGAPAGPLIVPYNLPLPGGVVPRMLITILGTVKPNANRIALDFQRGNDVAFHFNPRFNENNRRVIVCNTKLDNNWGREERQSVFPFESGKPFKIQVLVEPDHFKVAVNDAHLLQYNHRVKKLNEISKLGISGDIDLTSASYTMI

By IC50 is commonly meant the concentration at which inhibition is half-maximal. As to `[2H]C([2H])([2H])O[C@@H]1[C@@H](n2cc(-c3cc(F)c(F)c(F)c3)nn2)[C@@H](O)[C@@H](CO)O[C@H]1C(=O)N(c1cc(Cl)cc(Cl)c1)[C@H]1CCCC[C@@H]1O` [Example 87, (2R,3R,4S,5R,6R)-N-(3,5-dichlorophenyl)-5-hydroxy-N-((1S,2S)-2-hydroxycyclohexyl)-6-(hydroxymethyl)-3-(methoxy-d3)-4-(4-(3,4,5-trifluorophenyl)-1H-1,2,3-triazol-1-yl)tetrahydro-2H-pyran-2-carboxamide], the IC50 amounted to 173 nM at human Gal-1 (hGal-1) and 7 nM on human Gal-3 (hGal-3).

Regarding `CO[C@@H]1[C@@H](n2cc(-c3cc(F)c(F)c(F)c3)nn2)[C@@H](O)[C@@H](CO)O[C@H]1C(=O)N(c1cc(Cl)cc(C#N)c1)[C@H]1CCCC[C@@H]1O` [Example 88, (2R,3R,4S,5R,6R)-N-(3-chloro-5-cyanophenyl)-5-hydroxy-N-((1S,2S)-2-hydroxycyclohexyl)-6-(hydroxymethyl)-3-methoxy-4-(4-(3,4,5-trifluorophenyl)-1H-1,2,3-triazol-1-yl)tetrahydro-2H-pyran-2-carboxamide], the IC50 at human Gal-1 (hGal-1) was found to be 157 nM; at human Gal-3 (hGal-3) it was 13 nM.

Regarding `CO[C@@H]1[C@@H](n2cc(-c3cc(F)c(F)c(F)c3)nn2)[C@@H](O)[C@@H](CO)O[C@H]1C(=O)N(c1cc(Cl)ccc1C)[C@H]1CCCC[C@@H]1O` [Example 89, (2R,3R,4S,5R,6R)-N-(5-chloro-2-methylphenyl)-5-hydroxy-N-((1S,2S)-2-hydroxycyclohexyl)-6-(hydroxymethyl)-3-methoxy-4-(4-(3,4,5-trifluorophenyl)-1H-1,2,3-triazol-1-yl)tetrahydro-2H-pyran-2-carboxamide], the concentration for half-maximal inhibition (IC50) turned out to be 76 nM on human Gal-1 (hGal-1) and 10 nM at human Gal-3 (hGal-3).

For the molecule `CO[C@@H]1[C@@H](n2cc(-c3cc(F)c(F)c(F)c3)nn2)[C@@H](O)[C@@H](CO)O[C@H]1C(=O)N(c1ccc(F)c(Cl)c1)[C@H]1CCCC[C@@H]1O` [Example 90, (2R,3R,4S,5R,6R)-N-(3-chloro-4-fluorophenyl)-5-hydroxy-N-((1S,2S)-2-hydroxycyclohexyl)-6-(hydroxymethyl)-3-methoxy-4-(4-(3,4,5-trifluorophenyl)-1H-1,2,3-triazol-1-yl)tetrahydro-2H-pyran-2-carboxamide], the values for the IC50 at human Gal-1 (hGal-1) and on human Gal-3 (hGal-3) were 358 nM and 26 nM, respectively.

`CO[C@@H]1[C@@H](n2cc(-c3cc(F)c(F)c(F)c3)nn2)[C@@H](O)[C@@H](CO)O[C@H]1C(=O)N(c1ccc(C(F)(F)F)c(Cl)c1)[C@H]1CCCC[C@@H]1O` [Example 91, (2R,3R,4S,5R,6R)-N-(3-chloro-4-(trifluoromethyl)phenyl)-5-hydroxy-N-((1S,2S)-2-hydroxycyclohexyl)-6-(hydroxymethyl)-3-methoxy-4-(4-(3,4,5-trifluorophenyl)-1H-1,2,3-triazol-1-yl)tetrahydro-2H-pyran-2-carboxamide]: the IC50 was 1540 nM at human Gal-1 (hGal-1) and 147 nM at human Gal-3 (hGal-3).

Turning to `CO[C@@H]1[C@@H](n2cc(-c3cc(F)c(F)c(F)c3)nn2)[C@@H](O)[C@@H](CO)O[C@H]1C(=O)N(c1ccc(F)c(Br)c1)[C@H]1CCCC[C@@H]1O` [Example 92, (2R,3R,4S,5R,6R)-N-(3-bromo-4-fluorophenyl)-5-hydroxy-N-((1S,2S)-2-hydroxycyclohexyl)-6-(hydroxymethyl)-3-methoxy-4-(4-(3,4,5-trifluorophenyl)-1H-1,2,3-triazol-1-yl)tetrahydro-2H-pyran-2-carboxamide], the figures for the IC50 on human Gal-1 (hGal-1) and on human Gal-3 (hGal-3) were 340 nM and 18 nM, respectively.

For the molecule `CO[C@@H]1[C@@H](n2cc(-c3cc(F)c(F)c(F)c3)nn2)[C@@H](O)[C@@H](CO)O[C@H]1C(=O)N(c1ccc2ncsc2c1)[C@H]1CCCC[C@@H]1O` [Example 93, (2R,3R,4S,5R,6R)-N-(benzo[d]thiazol-6-yl)-5-hydroxy-N-((1S,2S)-2-hydroxycyclohexyl)-6-(hydroxymethyl)-3-methoxy-4-(4-(3,4,5-trifluorophenyl)-1H-1,2,3-triazol-1-yl)tetrahydro-2H-pyran-2-carboxamide], the IC50 was 163 nM on human Gal-1 (hGal-1) and 20 nM on human Gal-3 (hGal-3).

`CO[C@@H]1[C@@H](n2cc(-c3cc(F)c(F)c(F)c3)nn2)[C@@H](O)[C@@H](CO)O[C@H]1C(=O)N(c1ccc2nc(C)sc2c1)[C@H]1CCCC[C@@H]1O` [Example 94, (2R,3R,4S,5R,6R)-5-hydroxy-N-((1S,2S)-2-hydroxycyclohexyl)-6-(hydroxymethyl)-3-methoxy-N-(2-methylbenzo[d]thiazol-6-yl)-4-(4-(3,4,5-trifluorophenyl)-1H-1,2,3-triazol-1-yl)tetrahydro-2H-pyran-2-carboxamide]: the IC50 is 254 nM on human Gal-1 (hGal-1) and 31 nM at human Gal-3 (hGal-3).

`CO[C@@H]1[C@@H](n2cc(-c3cc(F)c(F)c(F)c3)nn2)[C@@H](O)[C@@H](CO)O[C@H]1C(=O)N(c1cc(Cl)cc(C(F)(F)F)c1)[C@H]1CCCC[C@@H]1O` [Example 95, (2R,3R,4S,5R,6R)-N-(3-chloro-5-(trifluoromethyl)phenyl)-5-hydroxy-N-((1S,2S)-2-hydroxycyclohexyl)-6-(hydroxymethyl)-3-methoxy-4-(4-(3,4,5-trifluorophenyl)-1H-1,2,3-triazol-1-yl)tetrahydro-2H-pyran-2-carboxamide]: the IC50 at human Gal-1 (hGal-1) was determined as 398 nM; on human Gal-3 (hGal-3), 16 nM.

Take `CO[C@@H]1[C@@H](n2cc(-c3cc(F)c(F)c(F)c3)nn2)[C@@H](O)[C@@H](CO)O[C@H]1C(=O)N(c1cc(Cl)cc(Br)c1)[C@H]1CCCC[C@@H]1O` [Example 96, (2R,3R,4S,5R,6R)-N-(3-bromo-5-chlorophenyl)-5-hydroxy-N-((1S,2S)-2-hydroxycyclohexyl)-6-(hydroxymethyl)-3-methoxy-4-(4-(3,4,5-trifluorophenyl)-1H-1,2,3-triazol-1-yl)tetrahydro-2H-pyran-2-carboxamide]: the IC50 at human Gal-1 (hGal-1) came to 403 nM; on human Gal-3 (hGal-3), 14 nM.

`CO[C@@H]1[C@@H](n2cc(-c3cc(F)c(F)c(F)c3)nn2)[C@@H](O)[C@@H](CO)O[C@H]1C(=O)N(c1cc(Br)cc(Br)c1)[C@H]1CCCC[C@@H]1O` [Example 97, (2R,3R,4S,5R,6R)-N-(3,5-dibromophenyl)-5-hydroxy-N-((1S,2S)-2-hydroxycyclohexyl)-6-(hydroxymethyl)-3-methoxy-4-(4-(3,4,5-trifluorophenyl)-1H-1,2,3-triazol-1-yl)tetrahydro-2H-pyran-2-carboxamide]: the IC50 at human Gal-1 (hGal-1) came out at 266 nM; at human Gal-3 (hGal-3) it was 13 nM.

In the case of `CO[C@@H]1[C@@H](n2cc(-c3cc(F)c(F)c(F)c3)nn2)[C@@H](O)[C@@H](CO)O[C@H]1C(=O)N(c1ccc(Cl)c(Br)c1)[C@H]1CCCC[C@@H]1O` [Example 99, (2R,3R,4S,5R,6R)-N-(3-bromo-4-chlorophenyl)-5-hydroxy-N-((1S,2S)-2-hydroxycyclohexyl)-6-(hydroxymethyl)-3-methoxy-4-(4-(3,4,5-trifluorophenyl)-1H-1,2,3-triazol-1-yl)tetrahydro-2H-pyran-2-carboxamide], the IC50 on human Gal-1 (hGal-1) is 377 nM; at human Gal-3 (hGal-3), 32 nM.

In the case of `CO[C@@H]1[C@@H](n2cc(-c3cc(F)c(F)c(F)c3)nn2)[C@@H](O)[C@@H](CO)O[C@H]1C(=O)N(c1ccccc1)[C@H]1CCCC[C@@H]1O` [Example 100, (2R,3R,4S,5R,6R)-5-hydroxy-N-((1S,2S)-2-hydroxycyclohexyl)-6-(hydroxymethyl)-3-methoxy-N-phenyl-4-(4-(3,4,5-trifluorophenyl)-1H-1,2,3-triazol-1-yl)tetrahydro-2H-pyran-2-carboxamide], the IC50 worked out at 18600 nM on human Gal-1 (hGal-1) and 73 nM at human Gal-3 (hGal-3).
